Experimental data reported in US7309793B2, “Benzopyran derivatives substituted with a benzimidazole derivative, pharmaceutically acceptable salts therof, their preparations and pharmaceutical compositions containing them” (Dongbu Hannong Chemical Co., Ltd., priority 2003, dated 2007).

Assays:
rat aorta = assay: Vasodilating effect on blood vessel isolated from white rats (methoxamine-constricted aortic rings); conditions: for IC50: isolated rat aorta constricted with methoxamine (3 μM), endothelium removed, read-out: Concentration for inhibition of constriction induced by methoxamine in rat arota (IC50); for weaker vasorelaxation effect than that of BMS-180448 (times): ratio of IC50 versus BMS-180448
Excerpt: White rats (350˜450 g; the Experimental Animal Team of the Korea Research Institute of Chemical Technology) were knocked to be unconscious by hitting the occipital region, sacrificed by cervical dislocation, and underwent thoracotomy. After being quickly removed, the thoracic aorta was deprived of the adipose tissue and cut into aortic rings of 3 mm width. The aorta was lightly rubbed with cotton club soaked in a modified Krebs Henseleit buffer (physiological salt solution) to remove the inner […] layer therefrom. While being hung in an organ bath containing a physiological buffer, the vascular smooth muscle was allowed to equilibrate under a resting tension of 2 g and then, stand for 1 hour at 37° C. for stabilization, supplying a carbogen consisting of 95% O2/5% CO2. Thereafter, the vascular smooth muscle was constricted with 10^−5 M phenylephrine and washed several times with physiological saline solution. The said procedure was repeated to ensure the stable reactivity of vascular smooth muscle to repetitive constriction/relaxation.
Thereafter, 3×10^−6 M methoxamine was applied to induce an intensive constriction in the vascular smooth muscle. When the vasoconstriction induced by the methoxamine was reached and maintained to a maximum, test compounds and control material were cumulatively added to the organ bath with concentration of 1, 3, 10 and 30 μM, respectively, to examine the vasodilating effect. Cromakalim and BMS-180448 (compound of <Formula 2>), known to be the first generation KATP opener with potent vasodilating effect, were used as control materials.
The change rate of constriction by the addition of the drugs compared to the maximal constriction induced by methoxamine was calculated to plot a concentration-relaxation response curve. Through a least linear regression analysis, IC50 that the drug concentration at which the vascular tissue is relaxed to 50% extent of the maximal constriction, was obtained for each drug. And the results were shown in the below Table 1.

isolated rat hearts = assay: Cardioprotective effect on isolated ischemic heart models of white rats (Langendorff, global ischemia-reperfusion); conditions: 10 μM; for LVDP × HR (left ventricular developed pressure × heart rate), % of pre-treatment / EDP (left ventricular end diastolic pressure): 30 min global ischemia, 30 min reperfusion; for EDP (left ventricular end diastolic pressure): baseline 5 mmHg; for LDH (concentration of lactate dehydrogenase, reperfusion release): after 30 min reperfusion; for TTC (time to contracture / time to induce contraction): during 30 min global ischemia, first 5 mmHg increase in EDP
Procedure: 100 mg/kg of sodium pentobarbital was injected in abdominal cavity of white male rats (300˜450 g; the experimental animal team of the Korea Research Institute of Chemical Technology) to anesthetize them. Then, an intravenous injection of 1000 U/kg of heparin was performed before taking out heart. Particularly, cannula(PE 240) was inserted in the trachea, and artificial respiration was tried upon the rat by using a rodent ventilator. Under that condition, aortic cannula was inserted in the aorta and heart was taken out under retrograde perfusion. The extracted heart was hung on Langendorff apparatus quickly and unnecessary tissues on heart were removed. Perfusion was induced under static pressure (85 mmHg) with 37° C. modified Krebs-Henseleit bicarbonate buffer (composition <mM/L>: 116 NaCl, 4.7 KCl, 1.1 MgSO4, 1.17 KH2PO4, 24.9 NaHCO3, 2.52 CaCl2, 8.32 Glucose, 2.0 Pyruvate) saturated with 95% O2/5% CO2. A metal cannula, to which a latex balloon filled with a ethanol-distilled water mixture (1:1 vol/vol) was linked, was inserted in left ventricle through pulmonary vein. Then, left ventricular pressure transmitted through the balloon was transduced by using pressure transducer, and amplified by using isovolumetric amplifier(Plugsys bridge amplifier). Then, the pressure was recorded in a recorder (Linearcorder mark 8 WR 3500). Thereafter, heart was stabilized for 15 minutes. Then, left ventricular end diastolic pressure (LVEDP) was given by 5 mmHg and such volume of the balloon was kept throughout the experiments.
Baseline cardiac contractile function, heart rate (HR), and coronary flow (CF) were measured. Cardiac contractile function was calculated by […], yielding LVDP (left ventricular developed pressure). Double product RPP (rate-pressure product)(DP), another important parameter for indirectly assessing cardiac performance in Langendorff heart, in which cardiac output could not be measured ordinarily, was calculated by multiplying HR by LVDP. Throughout the experiment, total coronary blood flow was measured by the use of coronary flow probe (diameter: 1.0 mm) installed in aortic cannula with electromagnetic flowmeter. Temperature of heart was steadily maintained by immersing the heart at 37° C. in physiological saline solution to which 95% O2/5% CO2 was constantly supplied. After stabilization for 15 min, the hearts were pre-treated for 10 min with vehicle (0.04% DMSO) only or a compound of the present invention or the control material in the vehicle. Thereafter, cardiac contractile function, HR and CF were repeatedly measured. Global ischemia was induced by completely shutting off the perfusate for 30 min. Severity of ischemia was determined as the time to contracture (TTC, min) during global ischemia in which the first 5 mmHg increase in EDP was observed. Then, the hearts were reperfused and, 30 min later, contractile functions (LVDP, HR and CF) were repeatedly measured. After reperfusion was accomplished for 30 min, LDH (lactate dehydrogenase) was measured with a kit as a sensitive index for loss of cell viability.

Compound	IC50 (rat aorta) [µM]	weaker vasorelaxation effects than that of Cromakalim (times) (rat aorta; ratio of IC50 versus Cromakalim)	LVDP × HR (left ventricular developed pressure × heart rate), % of pre-treatment (isolated rat hearts) [%]	EDP (left ventricular end diastolic pressure) (isolated rat hearts) [mmHg]	LDH (concentration of lactate dehydrogenase, reperfusion release) (isolated rat hearts) [unit/g]	TTC (time to contracture / time to induce contraction) (isolated rat hearts) [min]	weaker vasorelaxation effect than that of BMS-180448 (times) (rat aorta)
CC1(C)Oc2ccc(C#N)cc2[C@@H](NC(=NC#N)Nc2ccc(Cl)cc2)[C@@H]1O [BMS-180448, reference compound]	1.38	twenty times weaker	67.6	16.5	17.2	27.8	
CC1(C)Oc2ccc(C#N)cc2C(N2CCCC2=O)C1O (centres unmarked) [Cromakalim, reference compound]	0.067						
COC(OC)[C@@]1(C)Oc2ccc([N+](=O)[O-])cc2[C@H](n2c(=NC#N)[nH]c3ccccc32)[C@H]1O [Example 1, (2S, 3R, 4S)-6-nitro-3,4-dihydro-3-hydroxy-2-dimethoxymethyl-2-methyl-4-(2,3-dihydro-2-cyanoimino-1H-benzimidazol-1-yl)-2H-1-benzopyran]	50.1		68.8	20.3	8.1	23.2	36
COC(OC)[C@@]1(C)Oc2ccc([N+](=O)[O-])cc2[C@H](n2c(=O)[nH]c3ccccc32)[C@H]1O [Example 18, (2S, 3R, 4S)-6-nitro-3,4-dihydro-3-hydroxy-2-dimethoxymethyl-2-methyl-4-(2,3-dihydro-2-oxo-1H-benzimidazol-1-yl)-2H-1-benzopyran]			41.5	29.3	20.4	24.2	
CC1(C)Oc2ccc([N+](=O)[O-])cc2[C@H](n2c(=O)[nH]c3ccccc32)[C@H]1O [Example 20, (3R, 4S)-6-nitro-3,4-dihydro-3-hydroxy-2,2-dimethyl-4-(2,3-dihydro-2-oxo-1H-benzimidazol-1-yl)-2H-1-benzopyran]	18.6		55.5	29.0	20.7	23.9	10
